As a reminder, the IC50 is the concentration needed to halve the response being measured. High values mean a need for much substance, low ones inhibition by little substance.

T1 sequence (P53350 whole entry): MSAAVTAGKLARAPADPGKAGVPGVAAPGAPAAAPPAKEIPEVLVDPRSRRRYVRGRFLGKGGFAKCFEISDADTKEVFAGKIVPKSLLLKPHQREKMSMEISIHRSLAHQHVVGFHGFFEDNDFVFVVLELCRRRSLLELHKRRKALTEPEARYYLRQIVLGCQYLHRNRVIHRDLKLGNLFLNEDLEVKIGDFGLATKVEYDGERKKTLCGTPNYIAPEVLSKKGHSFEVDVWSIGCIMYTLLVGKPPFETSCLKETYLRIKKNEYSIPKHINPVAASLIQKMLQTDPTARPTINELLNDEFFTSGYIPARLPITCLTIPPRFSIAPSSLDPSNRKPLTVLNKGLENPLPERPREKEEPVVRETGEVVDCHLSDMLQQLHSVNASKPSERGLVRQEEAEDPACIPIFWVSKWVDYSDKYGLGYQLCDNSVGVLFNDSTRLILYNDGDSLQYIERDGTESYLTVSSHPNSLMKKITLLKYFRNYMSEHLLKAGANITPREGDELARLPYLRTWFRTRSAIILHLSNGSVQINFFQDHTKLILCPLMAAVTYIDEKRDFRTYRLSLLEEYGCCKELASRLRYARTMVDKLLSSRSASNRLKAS

The assay has as its target T1, PLK1 (Homo sapiens, UniProt P53350).
T1 construct: Full-length, active GST-PLK1 is purified from Sf9 insect cells; made in house; host or cells: Sf9 insect cells
Description: Biochemical Characterization Assay: HTRF kinase assay, GST-PLK1 phosphorylation of GST-p53. To be noted: GST-PLK1, GST-p53 substrate, ATP. An outline of the steps: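 Full-length active GST-PLK1 (Sf9, 3 ug/mL) phosphorylated full-length GST-p53 (E. coli) in Kinase Assay Buffer for 35 min at 37 °C. Stopped with EDTA; phospho-p53 detected by HTRF with anti-phospho-p53, Eu-anti-rabbit and APC-anti-GST antibodies.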
For `COc1cc(C(=O)N[C@H]2CCNC(=O)C2)ccc1Nc1ncc2c(n1)N(C1CCCC1)CC(F)(F)C(=O)N2C` [Example I-90, S-4-(9-cyclopentyl-7,7-difluoro-5-methyl-6-oxo-6,7,8,9-tetrahydro-5H-pyrimido[4,5-b][1,4]diazepin-2-ylamino)-3-methoxy-N-(2-oxo-piperidin-4-yl)-benzamide], the half-inhibitory concentration (IC50) was 1 to 50 nM.
To `COc1cc(C(=O)NCC2CN(C(=O)OC(C)(C)C)C2)ccc1Nc1ncc2c(n1)N(C1CCCC1)CC(F)(F)C(=O)N2C` [Example I-91, 3-{[4-(9-cyclopentyl-7,7-difluoro-5-methyl-6-oxo-6,7,8,9-tetrahydro-5H-pyrimido[4,5-b][1,4]diazepin-2-ylamino)-3-methoxy-benzoylamino]-methyl}-azetidine-1-carboxylic acid tert-butyl ester] belongs 1 to 50 nM.
The value for `COc1cc(C(=O)NCC2CCN(C(=O)OC(C)(C)C)C2)ccc1Nc1ncc2c(n1)N(C1CCCC1)CC(F)(F)C(=O)N2C` (centres unmarked) [Example I-92, 3-{[4-(9-cyclopentyl-7,7-difluoro-5-methyl-6-oxo-6,7,8,9-tetrahydro-5H-pyrimido[4,5-b][1,4]diazepin-2-ylamino)-3-methoxy-benzoylamino]-methyl}-pyrrolidine-1-carboxylic acid tert-butyl ester] was 51 to 500 nM; that for `COc1cc(C(=O)NCC2CCNC2)ccc1Nc1ncc2c(n1)N(C1CCCC1)CC(F)(F)C(=O)N2C` (centres unmarked) [Example I-93, 4-(9-cyclopentyl-7,7-difluoro-5-methyl-6-oxo-6,7,8,9-tetrahydro-5H-pyrimido[4,5b][1,4]diazepin-2-ylamino)-3-methoxy-N-pyrrolidin-3-ylmethyl-benzamide] was 1 to 50 nM.
Turning to `COc1cc(C(=O)NCCCN2CCN(C(=O)OC(C)(C)C)CC2)ccc1Nc1ncc2c(n1)N(C1CCCC1)CC(F)(F)C(=O)N2C` [Example I-94, 4-{3-[4-(9-cyclopentyl-7,7-difluoro-5-methyl-6-oxo-6,7,8,9-tetrahydro-5H-pyrimido[4,5-b][1,4]diazepin-2-ylamino)-3-methoxy-benzoylamino]-propyl}-piperazine-1-carboxylic acid tert-butyl ester], the IC50 is 1 to 50 nM.
In the case of `COc1cc(C(=O)NCCCN2CCNCC2)ccc1Nc1ncc2c(n1)N(C1CCCC1)CC(F)(F)C(=O)N2C` [Example I-95, 4-(9-cyclopentyl-7,7-difluoro-5-methyl-6-oxo-6,7,8,9-tetrahydro-5H-pyrimido[4,5-b][1,4]diazepin-2-ylamino)-3-methoxy-N-(3-piperazin-1-yl-propyl)-benzamide], the concentration for half-maximal inhibition (IC50) fell in the range of 1 to 50 nM.
The value for `COc1cc(C(=O)NCCCN2CCN(CCO)CC2)ccc1Nc1ncc2c(n1)N(C1CCCC1)CC(F)(F)C(=O)N2C` [Example I-96, 4-(9-cyclopentyl-7,7-difluoro-5-methyl-6-oxo-6,7,8,9-tetrahydro-5H-pyrimido[4,5-b][1,4]diazepin-2-ylamino)-N-{3-[4-(2-hydroxy-ethyl)-piperazin-1-yl]-propyl}-3-methoxy-benzamide] was 1 to 50 nM.
The molecule `COc1cc(C(=O)N[C@H]2CC[C@@H](NC(=O)OC(C)(C)C)CC2)ccc1Nc1ncc2c(n1)N(C1CCCC1)CC(F)(F)C(=O)N2C` [Example I-97, cis-{4-[4-(9-cyclopentyl-7,7-difluoro-5-methyl-6-oxo-6,7,8,9-tetrahydro-5H-pyrimido[4,5-b][1,4]diazepin-2-ylamino)-3-methoxy-benzoylamino]-cyclohexyl}-carbamic acid tert-butyl ester] returned an IC50 of 51 to 500 nM.
To `COc1cc(C(=O)N[C@H]2CC[C@@H](N)CC2)ccc1Nc1ncc2c(n1)N(C1CCCC1)CC(F)(F)C(=O)N2C` [Example I-98, cis-N-(4-amino-cyclohexyl)-4-(9-cyclopentyl-7,7-difluoro-5-methyl-6-oxo-6,7,8,9-tetrahydro-5H-pyrimido[4,5-b][1,4]diazepin-2-ylamino)-3-methoxy-benzamide] belongs 1 to 50 nM; to `COc1cc(C(=O)NC2CN(C)C2)ccc1Nc1ncc2c(n1)N(C1CCCC1)CC(F)(F)C(=O)N2C` [Example I-99, 4-(9-cyclopentyl-7,7-difluoro-5-methyl-6-oxo-6,7,8,9-tetrahydro-5H-pyrimido[4,5-b][1,4]diazepin-2-ylamino)-3-methoxy-N-(1-methyl-azetidin-3-yl)-benzamide], 1 to 50 nM; to `COc1cc(C(=O)N[C@H]2CCN(Cc3ccccc3)C2)ccc1Nc1ncc2c(n1)N(C1CCCC1)CC(F)(F)C(=O)N2C` [Example I-100, N—((S)-1-benzyl-pyrrolidin-3-yl)-4-(9-cyclopentyl-7,7-difluoro-5-methyl-6-oxo-6,7,8,9-tetrahydro-5H-pyrimido[4,5-b][1,4]diazepin-2-ylamino)-3-methoxy-benzamide], 1 to 50 nM.
For `COc1cc(C(=O)N[C@@H]2CCN(Cc3ccccc3)C2)ccc1Nc1ncc2c(n1)N(C1CCCC1)CC(F)(F)C(=O)N2C` [Example I-101, N—((R)-1-benzyl-pyrrolidin-3-yl)-4-(9-cyclopentyl-7,7-difluoro-5-methyl-6-oxo-6,7,8,9-tetrahydro-5H-pyrimido[4,5-b][1,4]diazepin-2-ylamino)-3-methoxy-benzamide], the 50% inhibitory concentration (IC50) lay within 1 to 50 nM.
The value for `COc1cc(C(=O)NC2CCN(C(C)=O)CC2)ccc1Nc1ncc2c(n1)N(C1CCCC1)CC(F)(F)C(=O)N2C` [Example I-102, N-(1-acetyl-piperidin-4-yl)-4-(9-cyclopentyl-7,7-difluoro-5-methyl-6-oxo-6,7,8,9-tetrahydro-5H-pyrimido[4,5-b][1,4]diazepin-2-ylamino)-3-methoxy-benzamide] was 1 to 50 nM; that for `COc1cc(C(=O)N[C@@H]2CN(C(=O)OC(C)(C)C)C[C@H]2O)ccc1Nc1ncc2c(n1)N(C1CCCC1)CC(F)(F)C(=O)N2C` [Example I-103, (3R,4R)-3-[4-(9-cyclopentyl-7,7-difluoro-5-methyl-6-oxo-6,7,8,9-tetrahydro-5H-pyrimido[4,5-b][1,4]diazepin-2-ylamino)-3-methoxy-benzoylamino]-4-hydroxy-pyrrolidine-1-carboxylic acid tert-butyl ester] was 1 to 50 nM; that for `COc1cc(C(=O)N[C@@H]2CNC[C@H]2O)ccc1Nc1ncc2c(n1)N(C1CCCC1)CC(F)(F)C(=O)N2C` [Example I-104, 4-(9-cyclopentyl-7,7-difluoro-5-methyl-6-oxo-6,7,8,9-tetrahydro-5H-pyrimido[4,5-b][1,4]diazepin-2-ylamino)-N-((3R,4R)-4-hydroxy-pyrrolidin-3-yl)-3-methoxy-benzamide] was 1 to 50 nM.
The molecule `COc1cc(C(=O)NCCCN2CCC(O)CC2)ccc1Nc1ncc2c(n1)N(C1CCCC1)CC(F)(F)C(=O)N2C` [Example I-105, 4-(9-cyclopentyl-7,7-difluoro-5-methyl-6-oxo-6,7,8,9-tetrahydro-5H-pyrimido[4,5-b][1,4]diazepin-2-ylamino)-N-[3-(4-hydroxy-piperidin-1-yl)-propyl]-3-methoxy-benzamide] came in with an IC50 of 1 to 50 nM.
The value for `COc1cc(C(=O)NC2CN3CCC2CC3)ccc1Nc1ncc2c(n1)N(C1CCCC1)CC(F)(F)C(=O)N2C` [Example I-106, N—(R)-1-aza-bicyclo[2.2.2]oct-3-yl-4-(9-cyclopentyl-7,7-difluoro-5-methyl-6-oxo-6,7,8,9-tetrahydro-5H-pyrimido[4,5-b][1,4]diazepin-2-ylamino)-3-methoxy-benzamide] was 1 to 50 nM.
For the molecule `COc1cc(C(=O)N[C@@H]2CN3CCC2CC3)ccc1Nc1ncc2c(n1)N(C1CCCC1)CC(F)(F)C(=O)N2C` [Example I-107, N—(S)-1-aza-bicyclo[2.2.2]oct-3-yl-4-(9-cyclopentyl-7,7-difluoro-5-methyl-6-oxo-6,7,8,9-tetrahydro-5H-pyrimido[4,5-b][1,4]diazepin-2-ylamino)-3-methoxy-benzamide], the concentration for half-maximal inhibition (IC50) lay within 1 to 50 nM.
To `COc1cc(C(=O)NC2CCN(c3ccccn3)CC2)ccc1Nc1ncc2c(n1)N(C1CCCC1)CC(F)(F)C(=O)N2C` [Example I-108, 4-(9-cyclopentyl-7,7-difluoro-5-methyl-6-oxo-6,7,8,9-tetrahydro-5H-pyrimido[4,5-b][1,4]diazepin-2-ylamino)-3-methoxy-N-(3,4,5,6-tetrahydro-2H-[1,2′]bipyridinyl-4-yl)-benzamide] belongs 1 to 50 nM; to `COc1cc(C(=O)NCc2ccccn2)ccc1Nc1ncc2c(n1)N(C1CCCC1)CC(F)(F)C(=O)N2C` [Example I-109, 4-(9-cyclopentyl-7,7-difluoro-5-methyl-6-oxo-6,7,8,9-tetrahydro-5H-pyrimido[4,5-b][1,4]diazepin-2-ylamino)-3-methoxy-N-pyridin-2-ylmethyl-benzamide], 1 to 50 nM.
`COc1cc(C(=O)NCCCN2CCCCC2C)ccc1Nc1ncc2c(n1)N(C1CCCC1)CC(F)(F)C(=O)N2C` (centres unmarked) [Example I-110, 4-(9-cyclopentyl-7,7-difluoro-5-methyl-6-oxo-6,7,8,9-tetrahydro-5H-pyrimido[4,5-b][1,4]diazepin-2-ylamino)-3-methoxy-N-[3-(2-methyl-piperidin-1-yl)-propyl]-benzamide] came in with a concentration for half-maximal inhibition (IC50) of 1 to 50 nM.
To `COc1cc(C(=O)NCc2cccnc2)ccc1Nc1ncc2c(n1)N(C1CCCC1)CC(F)(F)C(=O)N2C` [Example I-111, 4-(9-cyclopentyl-7,7-difluoro-5-methyl-6-oxo-6,7,8,9-tetrahydro-5H-pyrimido[4,5-b][1,4]diazepin-2-ylamino)-3-methoxy-N-pyridin-3-yl-methyl benzamide] belongs 1 to 50 nM; to `COc1cc(C(=O)NCCC2CCCN2C)ccc1Nc1ncc2c(n1)N(C1CCCC1)CC(F)(F)C(=O)N2C` (centres unmarked) [Example I-112, 4-(9-cyclopentyl-7,7-difluoro-5-methyl-6-oxo-6,7,8,9-tetrahydro-5H-pyrimido[4,5-b][1,4]diazepin-2-ylamino)-3-methoxy-N-[2-(1-methyl-pyrrolidin-2-yl)-ethyl]-benzamide], 1 to 50 nM.

Values taken from patent US8003785B2 (Takeda Pharmaceutical Company Limited, priority 2008, dated 2011).
